# According to patent publication US20200319163A1, “METHODS AND COMPOSITIONS OVERCOMING CANCER CELL IMMUNE RESISTANCE” (Georgetown University, priority 2019, published 2020):
# Test system: ADCCR1 cells
# Assay: ADCC assay (specific lysis by NK92-CD16V effector cells) on ADCC-resistant cells
# Type: cell-based, human
# Conditions: ADCCR1 pretreated with inhibitor 0.01 to 10 μmol/L for 2 hours; ADCC assay at 4 hours; FIG. 4B, 4C
# Description: Inhibitors of histone acetyltransferase C646 (cat. no. S7152), DNA methyltransferase azacytidine (cat. no. S1782), histone demethylase GSK J4 HCL (cat. no. S7070), and HDAC panobinostat (cat. no. S1030) were purchased from Selleck Chemicals. Inhibitors were solubilized in DMSO at […]. Vehicle treatment (DMSO) was used at the highest equivalent v/v used in inhibitor treatments.
# ADCC assays were preformed using A431/ADCCS1/ADCCR1 as target cells and NK92-CD16V cells as the effector cells. Target cells are plated at 10,000 cells/well overnight (A431 cells double overnight).
compound,measurement,value
CC1=NN(c2ccc(C(=O)O)cc2)C(=O)/C1=C\c1ccc(-c2cc(C)c(C)cc2[N+](=O)[O-])o1 [C646],ADCC resistance / resensitization to ADCC (specific lysis),partially reversed
